In US20220347173A1, “METHODS OF TREATING LIVER FIBROSIS USING CALPAIN INHIBITORS” (Blade Therapeutics, Inc., priority 2018, published 2022):

How the values were obtained:
[1] = test system: CCl4-induced liver fibrosis in male BALB/c mice; test: Carbon Tetrachloride (CCl4)-induced liver fibrosis model; assay type: in vivo
Method: This study is performed to evaluate the effects of calpain compounds disclosed herein on a Carbon Tetrachloride (CCl4)-induced liver fibrosis in male BALB/c mice. Liver fibrosis is induced in mice by the administration of CCl4 twice weekly for four weeks. CCl4 administered animals are treated with compounds disclosed herein in a therapeutic treatment mode on day 14 post initiation of CCl4 injection and continued until study termination. Study is terminated 96 hours following the last CCl4 administration, i.e., on day 32 post CCl4 administration. Compounds described herein show an improvement in fibrosis score and no effect on liver enzymes, liver weight or body weight compared to vehicle.
Carbon tetrachloride (CCl4) is purchased from Sigma (cat #319961). To induce liver fibrosis, mice are administered CCl4 (1:1, CCl4:mineral oil) via intraperitoneal (ip) injection at a dose volume of 1 ml/kg body weight. On every CCl4 administration day animals are weighed prior to administration of CCl4 and the dose volume is adjusted as per body weight of individual animal. Animals are administered CCl4: mineral oil twice weekly i.e. every Monday and Thursday for four weeks, 2 hours post morning treatment. The final CCl4 injection is received on day 28 post first CCl4 injection.
Animals are bled via sub-mandibular route on day-4 prior to study initiation, and on day 13, post CCl4 administration, a day before the therapeutic treatment began. Plasma is prepared and stored at −20° C. until it is analyzed. Upon study termination day 32 post CCl4 administration, animals are bled via cardiac puncture. Serum is prepared and stored at −20° C. until shipped to contract company for liver enzyme panel analysis. […]
The procedures described above were followed using Compound 405 as a test compound administered at 30 mg/kg BID or 100 mg/kg BID. Body weights were measured prior to every CCl4 administration. […] Average liver weight of 2.24+/−0.06 g was recorded in animals treated with vehicle compared to no CCl4 administered control mice 1.45+/−0.03 g (p<0.0001).

[2] = test system: CDAHFD rat model of non-alcoholic steatohepatitis (NASH); test: Rat choline-deficient, amino acid-defined high fat diet (CDAHFD) model of NASH; assay type: in vivo, Male Wistar rats; conditions: for mRNA expression of CTGF: MC BID 42.89±32.82; for mRNA expression of IL-6: MC BID 54.89±47.23; for mRNA expression of Colla1: MC BID 106.6±59.97; for SMA (Acta2) protein expression: MC QD 5.82±0.67
Excerpt: A rat choline-deficient, amino acid-defined high fat diet (CDAHFD) model of non-alcoholic steatohepatitis (NASH) reproduces key features of the human disease. This model was used to examine the anti-fibrotic effects of Compound 405 (shown in Table 1a) in the CDAHFD rat model.
Male Wistar rats (Charles River Laboratories) were randomly assigned to receive the following treatments: Group 1 (n=8) served as a healthy control and were fed normal chow for 12 weeks; Group 2 (n=8) served as a disease control and was fed a CDAHFD and received once daily (QD) oral gavage treatment with vehicle Methylcellulose (MC) beginning at week 5 post CDAHFD, Group 3 (n=8) served as a disease control and was fed a CDAHFD and received twice daily (BID) oral gavage treatment with vehicle Methylcellulose (MC) beginning at week 5 post CDAHFD, Group 4 (n=8) was fed a CDAHFD and received QD oral gavage treatment with Compound 405 (200 mg/kg) beginning at week 5 post CDAHFD, Group 5 (n=8) was fed a CDAHFD and received BID oral gavage treatment with Compound 405 (100 mg/kg) beginning at week 5 post CDAHFD, Group 6 (n=8) was fed a CDAHFD and received QD oral gavage treatment with Compound 405 (60 mg/kg) beginning at week 5 post CDAHFD, Group 7 (n=8) was fed a CDAHFD and received BID oral gavage treatment with Compound 405 (30 mg/kg) beginning at week 5 post CDAHFD. At the end of the study (12 weeks), liver tissue and serum was collected for further analysis. A part of the liver was used for histological analysis and the spare liver from each individual animal was snap frozen on liquid nitrogen and stored at −80° C. Serum was collected to measure ALT,

[3] = BID oral 100 mg/kg and 30 mg/kg, serum
[4] = QD oral 200 mg/kg and 60 mg/kg, serum

Liver Weight (as a percent of total weight) ([2]; 30 mg/kg BID, p<0.05): 6.6 ± 0.3%
Liver Weight (as a percent of total weight) ([2]; 100 mg/kg BID, p<0.05): 6.6 ± 0.8%
spleen weight (as a percent of total weight) ([2]; BID oral 100 mg/kg and 30 mg/kg): did not affect
albumin levels [2, 3]: did not alter
Total bilirubin ([2]; BID study, serum): did not change significantly
albumin levels [2, 4]: did not change
Total bilirubin ([2]; QD study, serum): did not change significantly
Compound: Cc1nc(-c2ccccc2F)c(C(=O)NC(Cc2ccccc2)C(=O)C(N)=O)o1 (centres unmarked) [Compound 405]
Fibrosis score (Picrosirius Red-stained liver sections, polarized light) ([1]; CCl4-treated mice, oral 30 mg/kg BID or 100 mg/kg BID from day 14, day 32): statistically significant reduction
length and thickness of the collagen fibers (PSR-stained liver sections) ([1]; CCl4-treated mice, oral BID from day 14): decrease
fibrosis ([1]; dosed therapeutically at 100 mg/kg, twice a day): significantly reduced
mRNA expression of CTGF ([2]; 30 mg/kg BID, p<0.01): 3.55±1.35
mRNA expression of IL-6 ([2]; 30 mg/kg BID, p<0.01): 2.80±1.35
mRNA expression of SMA ([2]; 30 mg/kg BID, MC BID 73.65±37.51, p<0.01): 11.46±2.02
mRNA expression of Colla1 ([2]; 30 mg/kg BID, p<0.01): 13.37±2.53
fibrosis as measured by CPA ([2]; 60 mg/kg QD): did not significantly decrease
fibrosis as measured by hydroxyproline ([2]; 60 mg/kg QD): did not significantly decrease
SMA (Acta2) protein expression ([2]; 60 mg/kg QD, p<0.01): 2.40±1.16%
collagen deposition ([2]; 100 mg/kg BID): reduced
SMA (Acta2) protein expression in livers ([2]; 100 mg/kg BID, MC BID 7.08±1.36%, p<0.01): 2.01±1.14%
mRNA expression of CTGF ([2]; 100 mg/kg BID, p<0.05): 3.84±2.24
mRNA expression of IL-6 ([2]; 100 mg/kg BID, p<0.01): 15.81±9.01
mRNA expression of Colla1 ([2]; 100 mg/kg BID, p<0.01): 35.76±33.84
hydroxyproline ([2]; 100 mg/kg BID, MC BID 706.9±173.5 nmol/L, p<0.05): 458.2 ± 146 nmol/L
SMA (Acta2) protein expression ([2]; 200 mg/kg QD, p<0.01): 1.7±0.58%
collagen proportional area (CPA) ([2]; 200 mg/kg QD, MC QD 11.28±3.50%, liver at 12 weeks): 6.08±1.69%
hydroxyproline ([2]; 200 mg/kg QD, MC QD 731.3±165.9 nmol/L, p<0.05): 495.1 ± 113.9 nmol/L
pro-fibrotic or inflammatory gene expression (mRNA) ([2]; 200 mg/kg or 60 mg/kg QD): did not significantly decrease
body weight ([2]; BID oral 100 mg/kg and 30 mg/kg, weeks 5-12): did not affect
level of blood transaminases (U/L) including ALT, AST, and ALP vs MC BID [2, 3]: did not change
expression of Calpain1 ([2]; BID treatment): did not change
expression of Calpain 2 ([2]; BID treatment): did not change
liver fat content (histological analysis of steatosis) ([2]; BID treatment): did not change
body weight relative to vehicle (methyl cellulose) control ([2]; QD oral 200 mg/kg and 60 mg/kg, weeks 5-12): did not alter
level of blood transaminases (ALT, AST, ALP) vs MC QD [2, 4]: did not alter
liver fat content (histological analysis of steatosis) ([2]; QD treatment): did not change
